Assays:
[1] = test system: Phakopsora pachyrhizi; test: Curative activity against soybean rust caused by Phakopsora pachyrhizi (Example G2, sprayed directly after 24 h incubation); type: in vivo; details: soybean seedlings, 300 ppm aqueous active compound preparation, sprayed to runoff after 24 h incubation, assessed after a further 14 days; untreated plants 90% infected
Method: (§1) The active compounds were prepared separately or together as a stock solution with 25 mg of active compound, which was made up to 10 ml with a mixture of acetone and/or DMSO and the emulsifier Uniperol® EL (wetting agent with emulsifying and dispersant action based on ethoxylated alkylphenols) in the volume ratio solvent/emulsifier of 99 to 1. Subsequently, it was made up to 100 ml with water. This stock solution was diluted with the described solvent/emulsifier/water mixture to the active compound concentration indicated below. Alternatively to this, the active compounds were used as a commercially available ready-to-use solution and diluted with water to the active compound concentration indicated.
Leaves of soybean seedlings grown in pots were inoculated with a spore suspension of soybean rust (Phakopsora pachyrhizi). The pots were then placed in a chamber of high atmospheric humidity (90 to 95%) and 23 to 27° C. for 24 hours. During this time, the spores germinated and the germ tubes penetrated into the leaf tissue. The infected plants were then sprayed to runoff point with the active compound solution described above at the active compound concentration indicated below. […] The extent of the rust fungus development on the leaves was then determined visually in % infections.

[2] = test system: Phakopsora pachyrhizi; test: Curative activity against soybean rust caused by Phakopsora pachyrhizi (Example G1, sprayed two days after incubation); type: in vivo; details: soybean seedlings, 300 ppm aqueous active compound preparation, sprayed to runoff two days after 24 h incubation, assessed after a further 10 days; untreated plants 90% infected
Method: as §1
Leaves of soybean seedlings grown in pots were inoculated with a spore suspension of soybean rust (Phakopsora pachyrhizi). The pots were then placed in a chamber of high atmospheric humidity (90 to 95%) and 23 to 27° C. for 24 hours. During this time, the spores germinated and the germ tubes penetrated into the leaf tissue. The infected plants were then cultivated further in a greenhouse at temperatures between 23 and 27° C. and 60 to 80% relative atmospheric humidity. After two days, the plants were sprayed to runoff point with the active compound solution described above at the active compound concentration indicated below. After the spray coating had dried on, the test plants were cultivated in a greenhouse at temperatures between 23 and 27° C. and 60 to 80% relative atmospheric humidity for a further 10 days. The extent of the rust fungus development on the leaves was then determined visually in % infections.

CC(C)[C@H](O)[C@@H](CCCCOc1cccc(F)c1F)n1nc[nH]c1=S (racemic) [I.A1, (RS,SR)-2-[5-(2,3-difluorophenoxy)-1-(1-hydroxy-2-methylpropyl)pentyl]-2,4-dihydro[1,2,4]triazole-3-thione]
infection (extent of the rust fungus development on the leaves, determined visually) [1]: 0%

CC(C)[C@H](O)[C@@H](CCCCOc1cccc(Cl)c1Cl)n1nc[nH]c1=S (racemic) [I.A2, (RS,SR)-2-[5-(2,3-dichlorophenoxy)-1-(1-hydroxy-2-methylpropyl)pentyl]-2,4-dihydro[1,2,4]triazole-3-thione]
infection (extent of the rust fungus development on the leaves, determined visually) [2]: 0%

CC(C)[C@H](O)[C@@H](CCCCOc1ccc(Cl)cc1Cl)n1nc[nH]c1=S (racemic) [I.A3, (RS,SR)-2-[5-(2,4-dichlorophenoxy)-1-(1-hydroxy-2-methylpropyl)pentyl]-2,4-dihydro[1,2,4]triazole-3-thione]
infection (extent of the rust fungus development on the leaves, determined visually) [2]: 0%

CC(C)[C@H](O)[C@@H](CCCCOc1cc(F)ccc1F)n1nc[nH]c1=S (racemic) [I.A4, (RS,SR)-2-[5-(2,5-difluorophenoxy)-1-(1-hydroxy-2-methylpropyl)pentyl]-2,4-dihydro[1,2,4]triazole-3-thione]
infection (extent of the rust fungus development on the leaves, determined visually) [2]: 0%
